Laboratory results taken from ChEMBL document CHEMBL1201862, “PubChem BioAssay data set” (2004).
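These data come from cells grown in 96-well plates and exposed to compound for 48 hours at five concentrations. GI50 = concentration required for 50% inhibition of growth.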 Active and inactive are the calls of the source. Cut-off read from the data, not from the text of the source: active = GI50 up to about 1.1 µM and inactive = higher.

Columns and labels:
Test in all cases: growth of human tumour cells (NCI), 48 h
CAKI-1 = tested on: CAKI-1
DU-145 = tested on: DU-145
HCT-116 = tested on: HCT-116
HL-60 = tested on: HL-60
HOP-92 = tested on: HOP-92
K562 = tested on: K562
LOX IMVI = tested on: LOX IMVI
M14 = tested on: M14
MCF7 = tested on: MCF7
NCI-H460 = tested on: NCI-H460
OVCAR-3 = tested on: OVCAR-3
RXF 393 = tested on: RXF 393
SF-268 = tested on: SF-268
SF-295 = tested on: SF-295
SK-MEL-2 = tested on: SK-MEL-2
SK-OV-3 = tested on: SK-OV-3
T47D = tested on: T47D
TK-10 = tested on: TK-10
UACC-257 = tested on: UACC-257

| Structure (SMILES) | GI50 (CAKI-1) | GI50 (DU-145) | GI50 (HCT-116) | GI50 (HL-60) | GI50 (HOP-92) | GI50 (K562) | GI50 (LOX IMVI) | GI50 (M14) | GI50 (MCF7) | GI50 (NCI-H460) | GI50 (OVCAR-3) | GI50 (RXF 393) | GI50 (SF-268) | GI50 (SF-295) | GI50 (SK-MEL-2) | GI50 (SK-OV-3) | GI50 (T47D) | GI50 (TK-10) | GI50 (UACC-257) |
| --- | --- | --- | --- | --- | --- | --- | --- | --- | --- | --- | --- | --- | --- | --- | --- | --- | --- | --- | --- |
| CO/N=C(\C(=O)[N-]n1cn[n+](CC(=O)OC(C)(C)C)c1)c1csc(NC(c2ccccc2)(c2ccccc2)c2ccccc2)n1 | > 10 µM (inactive) | > 10 µM (inactive) | > 10 µM (inactive) | > 10 µM (inactive) | > 10 µM (inactive) | > 10 µM (inactive) | > 10 µM (inactive) | > 10 µM (inactive) | > 10 µM (inactive) | > 10 µM (inactive) | > 10 µM (inactive) | > 10 µM (inactive) | > 10 µM (inactive) | > 10 µM (inactive) | > 10 µM (inactive) | > 10 µM (inactive) | > 10 µM (inactive) | > 10 µM (inactive) | > 10 µM (inactive) |
| CSc1ncnc2c1cnn2CCCCO | > 100 µM (inactive) | > 100 µM (inactive) | > 100 µM (inactive) | > 100 µM (inactive) | > 100 µM (inactive) | > 100 µM (inactive) | > 100 µM (inactive) | > 100 µM (inactive) | > 100 µM (inactive) | > 100 µM (inactive) | > 100 µM (inactive) | > 100 µM (inactive) | > 100 µM (inactive) | > 100 µM (inactive) | > 100 µM (inactive) | > 100 µM (inactive) | > 100 µM (inactive) | > 100 µM (inactive) | > 100 µM (inactive) |
| CCCc1c(O)c(=O)c2c(OC)cc(OC)c3c4c(OC)cc(OC)c5c(=O)c(O)c(CCC)c(c1c23)c54 | 0.394 µM (active) | 0.37 µM (active) | 0.299 µM (active) | 1.74 µM (inactive) | 0.681 µM (active) | 0.195 µM (active) | 0.338 µM (active) | 0.755 µM (active) | 0.403 µM (active) | 0.301 µM (active) | 1.92 µM (inactive) | 2.79 µM (inactive) | 0.714 µM (active) | 0.37 µM (active) | 0.507 µM (active) | 0.342 µM (active) | 1.33 µM (inactive) | 1.9 µM (inactive) | 1.15 µM (inactive) |
| O=c1c(Cl)nsnc1Cl | 4.26 µM (inactive) | 17.3 µM (inactive) | 7.01 µM (inactive) | 0.787 µM (active) | 0.665 µM (active) | 1.73 µM (inactive) | 9.23 µM (inactive) | 5.01 µM (inactive) | 6.22 µM (inactive) | 29.3 µM (inactive) | 5.69 µM (inactive) | 12.1 µM (inactive) | 26.4 µM (inactive) | 18.4 µM (inactive) | 36.4 µM (inactive) | 19.1 µM (inactive) | 3.08 µM (inactive) | 2.57 µM (inactive) | 10.4 µM (inactive) |
| Nc1ncnc2c1ncn2C(=O)NC12CC3CC(CC(C3)C1)C2 | > 100 µM (inactive) | > 100 µM (inactive) | > 100 µM (inactive) | > 100 µM (inactive) | > 100 µM (inactive) | > 100 µM (inactive) | > 100 µM (inactive) | > 100 µM (inactive) | > 100 µM (inactive) | > 100 µM (inactive) | > 100 µM (inactive) | > 100 µM (inactive) | > 100 µM (inactive) | > 100 µM (inactive) | > 100 µM (inactive) | > 100 µM (inactive) | 4.97 µM (inactive) | > 100 µM (inactive) | > 100 µM (inactive) |
| COc1ccc(C(=O)/C=C/c2cc(O)c(O)cc2F)c(OC)c1 | 9.04 µM (inactive) | 6.19 µM (inactive) | 6.97 µM (inactive) | 1.15 µM (inactive) | 50.1 µM (inactive) | 1.16 µM (inactive) | 10.6 µM (inactive) | 10.2 µM (inactive) | 0.395 µM (active) | 3.99 µM (inactive) | 0.327 µM (active) | 9.68 µM (inactive) | 7.28 µM (inactive) | 5.65 µM (inactive) | 4.91 µM (inactive) | 10.6 µM (inactive) | 4.05 µM (inactive) | 15.1 µM (inactive) | 10.5 µM (inactive) |
| Nc1ccccc1/N=C/c1cc2cc([N+](=O)[O-])ccc2s1 | 15.5 µM (inactive) | 12.6 µM (inactive) | 24.9 µM (inactive) | 7.43 µM (inactive) | 18.9 µM (inactive) | 12.7 µM (inactive) | 13.9 µM (inactive) | 22.4 µM (inactive) | 5.27 µM (inactive) | 5.58 µM (inactive) | 14 µM (inactive) | 14.5 µM (inactive) | 14.6 µM (inactive) | 21.9 µM (inactive) | 12.7 µM (inactive) | 13.9 µM (inactive) | 4.13 µM (inactive) | 15.2 µM (inactive) | 19.5 µM (inactive) |
